Measured values taken from the SangsterLogP compilation.

Assay: from Kabankin, S.; Boldeskul, E.; Trinus, P.; Protsenko, D.; Landau, A. (1982). Physicochemical characteristics, antitumor activity and quantitative structure-activity relations for phosphoric …
Conditions: pH 7.4

SMILES | logD
O=C(NP(=O)(N1CC1)N1CC1)c1ccc(Cl)cc1 | 0.46
C=CCc1ccc(C(=O)NP(=O)(N2CC2)N2CC2)cc1 | 0.69
O=C(NP(=O)(N1CC1)N1CC1)c1ccccc1Br | 0.45
O=C(NP(=O)(N1CC1)N1CC1)c1ccc(I)cc1 | 1.63
O=C(NP(=O)(N1CC1)N1CC1)c1cccc(Br)c1 | 0.88
O=C(NP(=O)(N1CC1)N1CC1)c1cccc(I)c1 | 1.37
O=C(NP(=O)(N1CC1)N1CC1)c1cc(Br)cc(Br)c1 | 1.15
CCOc1cccc(C(=O)NP(=O)(N2CC2)N2CC2)c1 | 0.42
O=C(NP(=O)(N1CC1)N1CC1)c1cc(I)cc(I)c1 | 2.52
O=C(NP(=O)(N1CC1)N1CC1)c1cc(I)cc(I)c1I | 0.81
O=C(NP(=O)(N1CC1)N1CC1)c1ccc(F)cc1 | 0.13
O=C(NP(=O)(N1CC1)N1CC1)c1ccccc1 | -0.15
COc1ccc(C(=O)NP(=O)(N2CC2)N2CC2)cc1 | -0.02
C=CCc1cccc(C(=O)NP(=O)(N2CC2)N2CC2)c1 | 0.65
COc1cccc(C(=O)NP(=O)(N2CC2)N2CC2)c1 | 0.04
